Assay results: US20240360215A1, “ANTI-CD19 ANTIBODY IN THE TREATMENT OF CNS LYMPHOMA” (The Regents of the University of California, priority 2023, published 2024)
“Also recorded” adds a separate entry of the source.

How the values were obtained:
Assay type in all cases: in vivo, human
[1] = tested on: secondary CNS lymphoma; assay: illustrative treatment of first patient (large-B cell lymphoma, CNS relapse), MRI follow-up; details: for severe treatment-related toxicities requiring inpatient management: earlier therapies
Description: Staging documented concomitant right adrenal involvement. Treatment at an outside institution consisted of six cycles of high-dose methotrexate (HD-MTX) intercalated with rituximab, cyclophosphamide, adriamycin, vincristine, prednisone (R-CHOP) plus intrathecal cytarabine, also six cycles. At 7 months there was multifocal CNS progression and the patient was transferred to a tertiary care center where they received eight cycles of HD-MTX, six doses of temozolomide plus rituximab (MTR), consolidation with etoposide-ara-C (Soussain et al, J. Clin. Oncol 19:[…]; Rubenstein et al, J. Clin Oncol. 31:3061-8, 2013) followed by autologous stem cell transplantation and lenalidomide maintenance. However, at 6 months after transplantation, multifocal CNS progression was again evident on magnetic resonance imaging (MRI). This second relapse was treated with repeat HD-MTX (eight cycles) plus rituximab followed by focal irradiation to a refractory lesion in the right postcentral gyrus, followed by pomalidomide maintenance, resulting in a CNS response duration of nearly 2 years. A third isolated CNS relapse manifested by new multifocal lesions with mild left-to-right midline shift.
Ibrutinib was therefore discontinued and the patient continued on lenalidomide (10 mg/day), now co-administered with intravenous tafasitamab (12 mg/kg), without dexamethasone, following the schedule of the L-MIND study. […] The patient continues twice monthly infusion of tafasitamab, plus lenalidomide days 1-21, and remains in radiographic remission, both in brain and systemically, at 22 months since starting this combination.

[2] = tested on: primary CNS lymphoma; assay: illustrative treatment of second patient (multifocal primary CNS lymphoma, large B-cell type), MRI follow-up
Experimental: At first relapse they were re-treated with MTR followed by lenalidomide maintenance (5 mg/day) with intermittent high-dose methotrexate/rituximab every 4 months, resulting in sustained disease control on MRI for 3 years. At progression on lenalidomide they were re-challenged with MTR but immediately experienced growth of new lesions in the left frontal lobe, centrum semiovale and splenium of the corpus callosum. […] However, the corpus callosal lesion was resistant. […] (For image, see, Rauschecker et al., Br J Haematol, 201:154-157, first published January 23 2023).

[3] = tested on: relapsed CNS lymphoma; assay: phase I trial of tafasitamab plus lenalidomide in relapsed CNS lymphoma (NCT05351593); details: Patient 2; lenalidomide 15 mg/day, off study
Experimental: This patient's disease previously progressed on lenalidomide monotherapy at a higher dose of 15 mg/day.
The role of tafasitamab in these cases is evident based on prior resistance to lenalidomide, pomalidomide and rituximab.
Three were treated at the 10 mg lenalidomide dose level and one at the 15 mg lenalidomide dose level. […] The longest response duration was six months.
Illustrative responses of patient 2 in this study are depicted in FIG. 1.

Row | Compound | severe treatment-related toxicities requiring inpatient management [1] | time to multifocal CNS progression on MRI after transplantation ([1]; lenalidomide maintenance after autologous stem cell transplantation) | sustained disease control on MRI ([2]; first relapse, MTR then lenalidomide maintenance 5 mg/day with intermittent high-dose methotrexate/rituximab every 4 months) | response duration ([2]; lenalidomide maintenance 5 mg/day, days 1-21, after complete response with MTR) | disease response to earlier lenalidomide monotherapy [3] | CNS response duration ([1]; pomalidomide maintenance after repeat HD-MTX plus rituximab and focal irradiation)
1 | C=CC(=O)N1CCC[C@@H](n2nc(-c3ccc(Oc4ccccc4)cc3)c3c(N)ncnc32)C1 [ibrutinib] | pancytopenia, gastrointestinal bleeding, and necrotizing gangrenous cholecystitis |  |  |  |  | 
2 | Nc1cccc2c1CN(C1CCC(=O)NC1=O)C2=O (stereo not shown) [lenalidomide] |  | 6 months | 3 years | 17 months | progressed; also recorded: refractory | 
3 | Nc1cccc2c1C(=O)N(C1CCC(=O)NC1=O)C2=O (stereo not shown) [pomalidomide] | two independent episodes of pneumonia, associated with respiratory syncytial virus and later, aspergillosis |  |  |  |  | ~2 years
